Test results from patent US20120225062A1 (priority 2011, published 2012).

Test system: KMS11 (human myeloma cell line)
Test: Cell Proliferation Assay (CellTiter-Glo, 3 days)
Type: cell-based
Conditions: KMS-11, 72 h, KMS11-luc cells
Procedure: KMS11 (human myeloma cell line), were cultured in IMDM supplemented with 10% FBS, sodium pyruvate and antibiotics. Cells were plated in the same medium at a density of 2000 cells per well into 96 well tissue culture plates, with outside wells vacant, on the day of assay.
Test compounds supplied in DMSO were diluted into DMSO at 500 times the desired final concentrations before dilution into culture media to 2 times final concentrations. Equal volumes of 2× compounds were added to the cells in 96 well plates and incubated at 37° C. for 3 days.
After 3 days plates were equilibrated to room temperature and equal volume of CellTiter-Glow Reagent (Promega) was added to the culture wells. The plates were agitated briefly and luminescent signal was measured with luminometer.
Using the procedures of Cell Proliferation Assay, the EC50 concentrations of compounds of the examples were determined in KMS11 cells as shown in Table 4.

Row | EC50 [nM] | SMILES
1 | 27 | C[C@@H]1C[C@H](N)C[C@H](c2ccncc2NC(=O)c2ccc(F)c(-c3c(F)cc(C4(O)CCOCC4)cc3F)n2)C1 [Example 121, N-(4-((1R,3S,5S)-3-amino-5-methylcyclohexyl)pyridin-3-yl)-6-(2,6-difluoro-4-(4-hydroxytetrahydro-2H-pyran-4-yl)phenyl)-5-fluoropicolinamide]
2 | 41 | Cc1cc(F)c(-c2nc(C(=O)Nc3cnccc3[C@H]3C[C@@H](N)[C@@H](O)[C@@H](C)C3)ccc2F)c(F)c1 [Example 6, N-(4-((1R,3R,4S,5S)-3-amino-4-hydroxy-5-methylcyclohexyl)pyridin-3-yl)-6-(2,6-difluoro-4-methylphenyl)-5-fluoropicolinamide]
3 | 64 | C[C@H]1C[C@@H](c2ccncc2NC(=O)c2ccc(F)c(-c3c(F)cc(C4(O)CC4)cc3F)n2)C[C@@H](N)[C@@H]1O [Example 158, N-(4-((1R,3R,4R,5S)-3-amino-4-hydroxy-5-methylcyclohexyl)pyridin-3-yl)-6-(2,6-difluoro-4-(1-hydroxycyclopropyl)phenyl)-5-fluoropicolinamide]
4 | 62 | CCc1cc(F)c(-c2nc(C(=O)Nc3cnccc3[C@@H]3C[C@H](C)C[C@H](N)C3)ccc2F)c(F)c1 [Example 230, N-(4-((1R,3S,5S)-3-amino-5-methylcyclohexyl)pyridin-3-yl)-6-(4-ethyl-2,6-difluorophenyl)-5-fluoropicolinamide]
5 | 29 | C[C@H]1C[C@@H](c2ccncc2NC(=O)c2ccc(F)c(-c3c(F)cc(CCO)cc3F)n2)C[C@@H](N)[C@@H]1O [Example 34, N-(4-((1R,3R,4R,5S)-3-amino-4-hydroxy-5-methylcyclohexyl)pyridin-3-yl)-6-(2,6-difluoro-4-(2-hydroxyethyl)phenyl)-5-fluoropicolinamide]
6 | 3880 | C[C@H]1C[C@@H](c2ccncc2NC(=O)c2ccc(F)c(-c3c(F)cc([S@@+](C)[O-])cc3F)n2)C[C@@H](N)[C@@H]1O [Example 28]
7 | 15 | C[C@@H]1C[C@H](N)C[C@H](c2ccncc2NC(=O)c2ccc(F)c(-c3c(F)cc([C@@H](C)O)cc3F)n2)C1 [Example 74, N-(4-((1R,3S,5S)-3-amino-5-methylcyclohexyl)pyridin-3-yl)-6-(2,6-difluoro-4-((R)-1-hydroxyethyl)phenyl)-5-fluoropicolinamide]
8 | 74 | CSc1cc(F)c(-c2nc(C(=O)Nc3cnccc3[C@H]3C[C@@H](N)[C@@H](O)[C@@H](C)C3)ccc2F)c(F)c1 [Example 19, N-(4-((1R,3R,4S,5S)-3-amino-4-hydroxy-5-methylcyclohexyl)pyridin-3-yl)-6-(2,6-difluoro-4-(methylthio)phenyl)-5-fluoropicolinamide]
9 | 11 | C[C@H]1C[C@@H](c2ccncc2NC(=O)c2ccc(F)c(-c3c(F)cc(C(C)(C)O)cc3F)n2)C[C@@H](N)[C@@H]1O [Example 66, N-(4-((1R,3R,4R,5S)-3-amino-4-hydroxy-5-methylcyclohexyl)pyridin-3-yl)-6-(2,6-difluoro-4-(2-hydroxypropan-2-yl)phenyl)-5-fluoropicolinamide]
10 | 262 | C[C@@H]1C[C@H](N)C[C@H](c2ccncc2NC(=O)c2ccc(F)c(-c3c(F)cc(F)cc3F)n2)C1 [Example 209, N-(4-((1R,3S,5S)-3-amino-5-methylcyclohexyl)pyridin-3-yl)-5-fluoro-6-(2,4,6-trifluorophenyl)picolinamide]
11 | 83 | C[C@H]1C[C@@H](c2ccncc2NC(=O)c2ccc(F)c(-c3c(F)cc(C4(O)CCOCC4)cc3F)n2)C[C@@H](N)[C@@H]1O [Example 122, N-(4-((1R,3R,4R,5S)-3-amino-4-hydroxy-5-methylcyclohexyl)pyridin-3-yl)-6-(2,6-difluoro-4-(4-hydroxytetrahydro-2H-pyran-4-yl)phenyl)-5-fluoropicolinamide]
12 | 77 | C[C@H]1C[C@@H](c2ccncc2NC(=O)c2ccc(F)c(-c3c(F)cc(C4(C#N)CCOCC4)cc3F)n2)C[C@@H](N)[C@@H]1O [Example 171, N-(4-((1R,3R,4R,5S)-3-amino-4-hydroxy-5-methylcyclohexyl)pyridin-3-yl)-6-(4-(4-cyanotetrahydro-2H-pyran-4-yl)-2,6-difluorophenyl)-5-fluoropicolinamide]
13 | 71 | COc1cc(F)c(-c2nc(C(=O)Nc3cnccc3[C@@H]3C[C@H](C)C[C@H](N)C3)ccc2F)c(F)c1 [Example 11, N-(4-((1R,3S,5S)-3-amino-5-methylcyclohexyl)pyridin-3-yl)-6-(2,6-difluoro-4-methoxyphenyl)-5-fluoropicolinamide]
14 | 107 | CSc1cc(F)c(-c2nc(C(=O)Nc3cnccc3[C@H]3C[C@@H](N)[C@H](O)[C@@H](C)C3)ccc2F)c(F)c1 [Example 36, N-(4-((1R,3R,4R,5S)-3-amino-4-hydroxy-5-methylcyclohexyl)pyridin-3-yl)-6-(2,6-difluoro-4-(methylthio)phenyl)-5-fluoropicolinamide]
15 | 97 | N[C@H]1CCC[C@@H](c2ccncc2NC(=O)c2ccc(F)c(-c3c(F)cc(C4(O)CCC4)cc3F)n2)C1 [Example 159, N-(4-((1R,3S)-3-aminocyclohexyl)pyridin-3-yl)-6-(2,6-difluoro-4-(1-hydroxycyclobutyl)phenyl)-5-fluoropicolinamide]
16 | 211 | CCOCc1cc(F)c(-c2nc(C(=O)Nc3cnccc3[C@@H]3CCC[C@H](N)C3)ccc2F)c(F)c1 [Example 152, N-(4-((1R,3S)-3-aminocyclohexyl)pyridin-3-yl)-6-(4-(ethoxymethyl)-2,6-difluorophenyl)-5-fluoropicolinamide]
17 | 23 | C[C@H]1CN(c2ccncc2NC(=O)c2ccc(F)c(-c3c(F)cc(F)cc3F)n2)C[C@@H](N)[C@@H]1O [Example 218, N-(4-((3R,4R,5S)-3-amino-4-hydroxy-5-methylpiperidin-1-yl)pyridin-3-yl)-5-fluoro-6-(2,4,6-trifluorophenyl)picolinamide]
18 | 64 | C[C@@H]1C[C@H](N)C[C@H](c2ccncc2NC(=O)c2ccc(F)c(-c3c(F)cc(CO)cc3F)n2)C1 [Example 224, N-(4-((1R,3S,5S)-3-amino-5-methylcyclohexyl)pyridin-3-yl)-6-(2,6-difluoro-4-(hydroxymethyl)phenyl)-5-fluoropicolinamide]
19 | 340 | COCCOc1cc(F)c(-c2nc(C(=O)Nc3cnccc3[C@@H]3CCC[C@H](N)C3)ccc2F)c(F)c1 [Example 151, N-(4-((1R,3S)-3-aminocyclohexyl)pyridin-3-yl)-6-(2,6-difluoro-4-(2-methoxyethoxy)phenyl)-5-fluoropicolinamide]
20 | 31 | C[C@H]1C[C@@H](c2ccncc2NC(=O)c2ccc(F)c(-c3c(F)cc(C4COC4)cc3F)n2)C[C@@H](N)[C@@H]1O [Example 56, N-(4-((1R,3R,4R,5S)-3-amino-4-hydroxy-5-methylcyclohexyl)pyridin-3-yl)-6-(2,6-difluoro-4-(oxetan-3-yl)phenyl)-5-fluoropicolinamide]
21 | 436 | N[C@H]1CCC[C@@H](c2ccncc2NC(=O)c2ccc(F)c(-c3c(F)cc(C4CCOCC4)cc3F)n2)C1 [Example 156, N-(4-((1R,3S)-3-aminocyclohexyl)pyridin-3-yl)-6-(2,6-difluoro-4-(tetrahydro-2H-pyran-4-yl)phenyl)-5-fluoropicolinamide]
